Reference: patent publication US8530508B2, “Thrombopoietin receptor agonist (TpoRA) kills acute human myeloid leukemia cells” (GlaxoSmithKline LLC, priority 2007, dated 2013)

What was measured:
CD34+ cells = assay: Liquid culture of human progenitor cells (polyploidization, CD41/CD61 expression); assay type: cell-based; conditions: CD34+ cells in cytokines, 7-10 days
Description: Normal human progenitor cells (CD34+) were used to evaluate capability of Compound A to stimulate proliferation and differentiation of megakaryocytes. CD34+ cells were plated in fibrin clots and cultured for 10 days, after which time colonies were fixed and stained with antibody specific for megakaryocytic marker CD41. […] CD34+ cells were incubated in cytokines with rhTPO or Compound A for periods of 7-10 days, after which time cells in culture were examined for degree of polyploidization, and expression of megakaryocyte lineage markers CD41 and CD61.

[1] = tested on: STAT5, ERK, p70S6, ribosomal kinase S6 in N2C-TPO cells; assay: Western blot analysis of kinase phosphorylation in N2C-TPO cells; assay type: cell-based; conditions: 10 or 30 minutes
Description: (§1) Controls and cells stimulated with rhTPO or Compound A were washed twice in PBS, then pelleted. The pellet was dissolved in triple-lysis buffer comprised of 50 mM TRIS, 150 mM NaCl, 0.02% sodium azide, 0.1% sodium dodecyl sulphate (SDS) and 1% Igepal (Sigma, St. Louis, Mo.), and then incubated for 30 min on ice with vortexing every 10 min. The lysate was then spun at maximum speed in a microcentrifuge at 4° C. for 10 min. The extracted cell supernatant was used for Western-blot analysis.
(§2) Protein concentration was determined by a Bradford protein assay (Bio-Rad, Hercules, Calif.). A total of 150 μg protein extract was resolved on a 10% polyacrylamide gel (150V, 60 min.) then transferred to a poly vinylidene fluoride (PVDF) membrane (25V, 60 min). Condensed milk (5%) was used as a blocking solution. The membrane was incubated overnight at 4° C. with primary antibody at a 1:1000 dilution. After incubation, the membrane was washed three times in TBS-T buffer and probed with secondary HRP-conjugated antibody (Amersham Biosciences; Piscataway, N.J.) at dilution 1:1000 for 2 hour at room temperature. All antibodies were purchased from Cell Signaling Technology (Danvers, Mass.).
The effect of Compound A on phosphorylation of kinases known to be important in the Tpo signaling pathway was examined. Kinases evaluated include STAT5, ERK, p70S6, and ribosomal kinase S6. […]

[2] = tested on: STAT5, ERK, p70S6, S6 ribosomal protein in human progenitor cells CD34+; assay: Western blot analysis of kinase phosphorylation in CD34+ cells; assay type: cell-based; conditions: rhTPO 2.8 μM or Compound A 5 μM
Description: as §1, §2
The effect of Compound A on phosphorylation of kinases known to be important in the Tpo signaling pathway was examined. Kinases evaluated include STAT5, ERK, p70S6, and ribosomal kinase S6. […] The same experiment was performed on human progenitor cells CD34+, which are stimulated by Compound A to differentiate into the megakaryocytes.

[3] = tested on: p70S6 kinase and ribosomal kinase S6 in primary AML cells; assay: Western blot of p70S6 and S6 kinase phosphorylation in primary AML cells; assay type: cell-based, human; conditions: primary AML samples, 3 hours; SB559457 5 μM, Tpo 2.86 μM
Description: as §1, §2
In an effort to establish a correlation between cell signaling and array data, phosphorylation of kinases involved in Tpo signaling pathway in primary leukemia cells was examined. […]

N2C-TPO cells = assay: Proliferation of TPO dependent cell line N2C-TPO; assay type: cell-based
Description: N2C-TPO cells were derived by culture of a megakaryblastic cell line in rhTpo for 10 weeks and provided by Glaxo SmithKline Pharmaceuticals (Collegeville, Pa.). N2C-TPO cells were cultured in RPMI (Invitrogen, Carlsbad, Calif.) medium supplemented with 10% Animal Serum Complex—Fetalplex (Gemini Bio-Products, West Sacramento, Calif.), 0.5% Penicillin/Streptomycin (Invitrogen; Carlsbad, Calif.) and 20 ng/ml rhTPO.
In order to determine if Compound A has the ability to function as a thrombopoietin receptor (TpoR) agonist and stimulate proliferation and differentiation of human megakaryocytes, a number of cell culture experiments were performed using the Tpo dependent cell line (N2C-TPO) as well as normal human CD34+ cells. […] Consequently the 5 μM dose was used in further experiments where properties of rhTPO versus Compound A were directly compared.

human CD34+ cells = assay: Megakaryocyte colony forming assay; assay type: cell-based; conditions: Compound A 5 μM vs rhTPO 100 ng/ml; fibrin clots, 10 days, CD41 stain
Description: Normal human progenitor cells were plated in fibrinogen clots at a density of 5000 CD34+ cells per ml. Fibrinogen clots were prepared as follow: cells were re-suspended in IMDM medium supplemented with sodium bicarbonate (3 mg/ml); 3-mercapto-1-2propanediol (0.002%); transferring (300 μg/ml); CaCl2(37 μg/ml); fatty acid free, deionized BSA (10%); insulin (20 μg/ml); cholesterol (5.6 μg/ml) cytokines: IL-3 (10 ng/ml), SCF (10 ng/ml) and rhTPO (100 ng/ml equal 2.8 μM) or Compound A (5 μM). Then clotting mix containing fibrinogen (0.2%) and thrombin (0.2 u/ml). Cells were plated on 35 mm culture dishes and cultured in humidified incubator at 37° C. and 5% CO2. After 10 days, colonies were fixed and stained for megakaryocyte marker CD41a with fluorescently labeled antibody. Megakaryocyte colonies were counted using inverted fluorescent microscope.
Normal human progenitor cells (CD34+) were used to evaluate capability of Compound A to stimulate proliferation and differentiation of megakaryocytes. CD34+ cells were plated in fibrin clots and cultured for 10 days, after which time colonies were fixed and stained with antibody specific for megakaryocytic marker CD41. […]

[4] = tested on: primary leukemia cells from patients with acute myelogenous leukemia (AML); assay: Proliferation of primary AML cells; assay type: cell-based, human
Description: (§3) Human primary leukemia cells were obtained from Stem Cell and Leukemia Core at the University of Pennsylvania. Cells were cultured in EGM-2 (Endothelial Cell Medium-2, Cambrex; East Rutherford, N.J.). All cells were cultured in humidified incubator at 37° C. and 5% CO2.
(§4) Samples were obtained from 18 patients with acute myelogenous leukemia (AML), 7 patients with acute lymphocytic leukemia (ALL) and 3 patients with chronic myelogenous leukemia (CML). In 17 out of 18 tested AML samples, Compound A inhibited cell proliferation 70-90% when compared to untreated controls or cells cultured with rhTPO (FIG. 2A).
Further the effect of various doses of Compound A (1 μM, 2.5 μM and 5 μM) on AML samples was examined. This experiment was performed on 6 different samples. […] In the remaining 3 samples, doses of 1 μM and 2.5 μM Compound A had no effect on cell proliferation and survival.

[5] = tested on: primary cells from patients with acute lymphocytic leukemia (ALL); assay: Proliferation of primary ALL cells; assay type: cell-based, human; conditions: ALL patient samples
Description: as §3, §4

[6] = tested on: primary cells from patients with chronic myelogenous leukemia (CML); assay: Proliferation of primary CML cells; assay type: cell-based, human; conditions: CML patient samples
Description: as §3, §4

[7] = tested on: cells obtained from AML patients; assay: Rescue proliferation assay: rhTPO plus Compound A on AML cells; assay type: cell-based, human
Description: Proliferation assays were performed on cells obtained from 6 AML patients. In some experiments, cells were first exposed to Compound A and then stimulated with rhTPO five minutes later. To avoid the possibility of all receptors being occupied by Compound A and therefore preventing rhTPO from binding, other experiments were also performed by first stimulating the cells with rhTPO followed by exposure to Compound A 5 minutes later.

[8] = tested on: STAT5, ERK, p70S6 kinases and S6 ribosomal protein in N2C-TPO cells; assay: Rescue of kinase phosphorylation in N2C-TPO cells (rhTPO plus Compound A); assay type: cell-based; conditions: rhTPO first then Compound A, or the reverse
Description: as §1, §2
In an effort to address these possibilities, similar rescue experiments were performed on N2C-TPO cells while evaluating phosphorylation of kinases involved in TPO pathway.

[9] = tested on: primary cells from AML patient 774; assay: Annexin V / propidium iodide apoptosis assay, primary AML cells; assay type: cell-based, human; conditions: AML patient 774, 72 hours; vs control and Tpo+DMSO
Description: (§5) Annexin-V is a phospholipid binding protein with a high affinity for phosphatidylserine (PS). Annexin V will not bind normal, intact cells, but necrotic cells are leaky enough to give Annexin V access to inner membrane PS. Propidium iodide stains DNA. The assay therefore identifies cells undergoing apoptosis.
(§6) Primary cells were isolated from either an AML (patient 774; top row) or ALL (patient 710; bottom row) patient. The cells were then exposed to either control solution (left pair of panels), rhTpo+DMSO (middle pair of panels), or SB559457 (right pair of panels) for 72 hours.

[10] = tested on: primary cells from ALL patient 710; assay: Annexin V / propidium iodide apoptosis assay, primary ALL cells; assay type: cell-based, human; conditions: ALL patient 710, 72 hours
Description: as §5, §6

[11] = tested on: GAPDH and Redd1 mRNA in primary AML cells; assay: Quantitative real time PCR of GAPDH and Redd1 in primary AML cells; assay type: cell-based, human; conditions: primary AML samples, 6 hours, QRT-PCR

Row | Compound | cells with greater than 4N DNA content (CD34+ cells) | phosphorylation of STAT5, ERK, p70S6 and ribosomal kinase S6 [1] | ERK, p70S6 and S6 ribosomal protein phosphorylation [2] | phosphorylation of STAT5 [2] | phosphorylation of p70S6 kinase at Thr421/Ser424 and ribosomal kinase S6 [3] | concentration of maximal effects on cell proliferation (N2C-TPO cells) | number of megakaryocyte colonies compared to rhTPO (human CD34+ cells) | cells expressing megakaryocyte markers CD41 and CD61 (CD34+ cells) | effect on cell proliferation and survival ([4]; 1 μM and 2.5 μM, remaining 3 of 6 AML samples) | leukemia cell growth and proliferation ([4]; 5 μM, remaining 3 of 6 AML samples) | effect on cell proliferation ([4]; 1 and 2.5 μM, 3 of 6 AML samples) | inhibition of cell proliferation ([4]; 17 out of 18 AML samples, vs untreated controls or cells cultured with rhTPO) | effect on cell proliferation / growth or viability [5] | effect on cell proliferation / growth or viability [6] | rescue of AML cell survival by rhTPO ([7]; samples 794 and 332, rhTPO added with Compound A) | rescue of AML cell survival by rhTPO ([7]; samples 857, 774, 759, 342, rhTPO added 5 minutes before or after Compound A) | phosphorylation of STAT5, ERK, p70S6 kinases and S6 ribosomal protein with rhTPO plus Compound A [8] | Annexin V and PI positive cells (apoptosis) [9] | cellular apoptosis [10] | expression of GAPDH relative to cells treated with rhTpo [11]
1 | rhTPO: Full length recombinant human thrombopoietin (rhTPO) obtained from R&D Systems | 8% | high phosphorylation level | activation | stimulated phosphorylation of STAT5 | none or very little phosphorylation |  |  |  |  |  |  |  |  |  |  |  |  |  |  | 
2 | CC1=NN(c2ccc(C)c(C)c2)C(=O)/C1=N\Nc1cc(F)cc(-c2cccc(C(=O)O)c2)c1O [Compound A, 3′-{N′-[1-(3,4-dimethylphenyl)-3-methyl-5-oxo-1,5-dihydropyrazol-4-ylidene]hydrazine}-5′-fluoro-2′-hydroxybiphenyl-3-carboxylic acid] | 14% | none of those kineses were activated | activation | only cells exposed to rhTPO | high phosphorylation | 5 to 10 µM | slightly lower | 35% | no effect | inhibited leukemia cell growth and proliferation | had an effect on cell proliferation | 70-90% | No significant effects | No significant effects | adding rhTPO did attenuate the Compound A effect | not rescued | rescue of phosphorylation | increase in Annexin V and PI positive cells | No significant increases in cellular apoptosis | at least two times higher
